Read-outs that look alike come from different tables or passages of the source.
Key:
[1] = CellTiter-Glo cell viability assay (cytotoxicity), HEK293; assay type: cell-based; details: human, HEK293, 72 h treatment, read-out: In vitro cytotoxicity EC50 ± SD HEK293
Experimental: (§1) Cells were obtained from the following sources: HEK293 (ATCC, cat # CRL-1573), MOLT-4 (ATCC, cat # CRL-1582). Cell lines were routinely tested for Mycoplasma contamination with the MycoAlert PLUS Mycoplasma Detection Kit (Lonza Bioscience, cat # LT07) according to manufacturer protocol. Cell number and cell viability were measured using the Countess Automated Cell Counter (Invitrogen) using Trypan blue stain (Invitrogen, cat # T10282). Human embryonic kidney HEK293 cells were maintained in DMEM with high glucose and GlutaMAX (Gibco, cat # 10566016) supplemented with 10% HyClone Characterized Fetal Bovine Serum (Cytiva, cat # SH30071.03), and 100 µ mL^−1 Penicillin-Streptomycin (Gibco, cat # 15140122). Human T lymphoblast MOLT-4 cells were maintained in RPMI 1640 Medium (Gibco, cat # 11875093) supplemented with 10% HyClone Characterized Fetal Bovine Serum (Cytiva, cat # SH30071.03), 100 µ mL^−1 Penicillin-Streptomycin (Gibco, cat # 15140122), and 10 mM HEPES (Gibco, 15630080). Cells were cultured in incubators maintained at 37 °C with 5% CO2 and 95% relative humidity.
(§2) The CTG assay (Promega, cat # G7572) was used to quantify cellular ATP according to manufacturer protocols. The Multidrop Combi liquid dispenser (ThermoFisher) was used to dispense 4 µL of cells into white 1536-well microplates (Corning, cat # 7464) at a density of 1500 cells/well. Plated cells were incubated overnight. (−)-Premarineosin A (3) and derivatives were transferred into respective wells of each plate at 25 nL/well with the mosquito (SPT Labtech) in 16-pt, 1:3 titrations for a final concentration of 125 µM–8.71 pM for compounds with a high concentration of 20 mM, or 62.5 µM–4.36 pM for compounds with a high concentration of 10 mM. Controls were transferred into respective wells of each plate at 25 nL/well with the mosquito with a 16-pt, 1:2 titration of Digitonin for a final concentration of 125 µM–3.81 nM. The final concentration of DMSO was 0.58%. Cells were incubated for either 24, 48, and 72 h, after which point 3 µL/well of CTG was transferred to each plate with the BioRaptr 2.0 FRD (LetsGoRobotics). Plates were incubated for 10 min in the dark at ambient temperature for 10 min. Luminescence was measured using a ViewLux 1430Ultra HTS (PerkinElmer) with the following optical settings: exposure = 1 s, gain = high, speed = slow, binning = 2X. Dimethyl sulfoxide (“DMSO”; AMRESCO, cat # RGE-3070) was used as a vehicle control. Digitonin (Sigma-Aldrich, cat # D141) was prepared as a 20 mM stock solution in DMSO and stored at −30 °C for use as a cytotoxicity control. (−)-Premarineosin A (3) and derivatives were prepared at either 10 mM or 20 mM stock solutions in DMSO. Data were normalized to 125 µM Digitonin as −100% inhibition in a row-wise manner across the plate. Normalization was performed in Excel (Microsoft) and Concentration Response Curves (CRCs) were plotted in GraphPad Prism (GraphPad Software, Inc.) with error bars representing the standard deviation of four replicate wells (Supplementary Fig. 9).

[2] = CellTiter-Glo cell viability assay (cytotoxicity), MOLT4; assay type: cell-based; details: human, MOLT4, 72 h treatment, read-out: In vitro cytotoxicity EC50 ± SD MOLT4
Experimental: as §1, §2

[3] = tested on: Plasmodium falciparum Dd2 (chloroquine-resistant); assay: In vitro antimalarial growth inhibition assay (SYBR green), Dd2; assay type: cell-based; details: for EC50: Plasmodium falciparum, read-out: In vitro activity EC50 ± SD P. falciparum Dd2; for Fold more potent than chloroquine, Dd2: Dd2, versus chloroquine
Experimental: (§3) The antimalarial growth inhibition assay was performed as described previously. Briefly, the Plasmodium falciparum Dd2 and 3D7 parasites were diluted to 0.75% parasitemia with 2% hematocrit, and 50 μL diluted parasites were added to each well in a 96-well plate containing 50 μL of properly diluted drugs. Tested compounds were threefold diluted in triplicate with concentrations ranging from 20 – 0.001 µM/10 – 0.0005 µM. The parasites were incubated with the drug at 37 °C under mixed gas (5% O2, 5% CO2, and 90% N2) conditions for 48 h. DNA was released from the cultured parasite and stained with SYBR green dye. The plate was placed in the dark with gentle agitation for 1 h, and signals were read in a FLUOstar OPTIMA reader (BMG Labtech, Germany). Data from the microplate reader were analyzed as described previously[68] and plotted using Prism 9.0 software (GraphPad Software, Inc., San Diego, CA). Each in vitro experiment was performed in triplicate wells and repeated twice. Response Curves (CRCs) were plotted in GraphPad Prism (GraphPad Software, Inc.) with error bars representing the standard deviation of three replicate wells (Supplementary Fig. 10).

[4] = tested on: Plasmodium falciparum 3D7 (chloroquine-sensitive); assay: In vitro antimalarial growth inhibition assay (SYBR green), 3D7; assay type: cell-based; details: for EC50: Plasmodium falciparum
Experimental: as §3, with “Briefly, the Plasmodium falciparum Dd2 and 3D7 parasites were diluted to 0.75% parasitemia with 2% hematocrit, and 50 μL diluted parasites were added to each well in a 96-well plate containing 50 μL of properly diluted drugs.” left out

Plasmodium = tested on: Plasmodium; set-up: method as in PMID 24575817, PMID 19007176; details: cited from earlier work
[5] = Dd2 chloroquine-resistant, 48 h treatment
[6] = 3D7 chloroquine-sensitive, 48 h treatment, read-out: In vitro activity EC50 ± SD P. falciparum 3D7
[7] = 3D7, 48 h, read-out: In vitro activity EC50 ± SD P. falciparum 3D7
[8] = MOLT-4 T-cell leukemia (T lymphoblast) cells
[9] = 3D7 chloroquine-sensitive, 48 h treatment

Compound	EC50 at 72 h [1] [µM]	EC50 at 72 h [2] [µM]	EC50 [3, 5] [µM]	EC50 [4, 6] [µM]	EC50 ([3]; DD2, 48 h) [µM]	EC50 [4, 7] [µM]	also measured
COC1=CC(c2ccc[nH]2)=N[C@@]12O[C@H](C)C[C@H]1CCCCCCCc3[nH]c(cc3Cc3cc4[nH]c3CCCCCCC[C@@H]3C[C@@H](C)O[C@@]5(N=C(c6ccc[nH]6)C=C5OC)[C@@H]43)[C@@H]12 [compound 5, Methylene-bridged premarineosin A]	8.31 ± 1.46	1.16 ± 0.094	0.548 ± 0.076	1.39 ± 0.265	–	–	–
COC1=CC(c2ccc(Br)[nH]2)=N[C@@]12O[C@H](C)C[C@H]1CCCCCCCc3ccc([nH]3)[C@@H]12 [compound 11, 1-bromo premarineosin A]	19.2 ± 1.73	1.33 ± 0.691	–	–	0.259 ± 0.024	0.473 ± 0.113	–
COC1=CC(c2ccc[nH]2)=N[C@@]12O[C@H](C)C[C@H]1CCCCCCCc3[nH]c(cc3C(C)=O)[C@@H]12 [compound 9, 12-acetyl premarineosin A]	–	–	0.18 ± 0.014	0.178 ± 0.025	–	–	EC50 at 72 h ([1]; HEK293 embryonic kidney cells): 6.59 ± 3.02 µM; EC50 at 72 h [2, 8]: 3.67 ± 1.01 µM; In vitro activity EC50 ± SD P. falciparum Dd2 [3, 5]: sub-micromolar; In vitro activity EC50 ± SD P. falciparum 3D7 [4, 9]: sub-micromolar
COC1=CC(c2ccc[nH]2)=N[C@@]12O[C@H](C)C[C@H]1CCCCCCCc3[nH]c(cc3C(C)(C)c3cc4[nH]c3CCCCCCC[C@@H]3C[C@@H](C)O[C@@]5(N=C(c6ccc[nH]6)C=C5OC)[C@@H]43)[C@@H]12 [compound 4, gem-dimethyl-bridged premarineosin A]	8.29 ± 1.66	2.26 ± 0.777	–	–	1.24 ± 0.168	1.89 ± 0.243	–
COC1=CC(c2ccc[nH]2)=N[C@@]12O[C@H](C)C[C@H]1CCCCCCCc3[nH]c(cc3C=O)[C@@H]12 [compound 8, 12-formyl premarineosin A]	7.79 ± 1.62	6.63 ± 0.836	0.222 ± 0.053	0.165 ± 0.055	–	–	In vitro activity EC50 ± SD P. falciparum Dd2 [3, 5]: sub-micromolar; In vitro activity EC50 ± SD P. falciparum 3D7 [4, 9]: sub-micromolar
COC1=CC(c2ccc[nH]2)=N[C@@]12O[C@H](C)C[C@H]1CCCCCCCc3[nH]c(cc3C(C)(c3cc4[nH]c3CCCCCCC[C@@H]3C[C@@H](C)O[C@@]5(N=C(c6ccc[nH]6)C=C5OC)[C@@H]43)C(F)(F)F)[C@@H]12 [compound 6, Trifluoromethyl-bridged premarineosin A]	–	–	2.32 ± 0.448	5.07 ± 1	–	–	EC50 at 72 h ([1]; HEK293 embryonic kidney cells): 11 ± 2.15 µM; EC50 at 72 h [2, 8]: 6.51 ± 2.74 µM
COC1=CC(c2ccc[nH]2)=N[C@@]12O[C@H](C)C[C@H]1CCCCCCCc3[nH]c(cc3CO)[C@@H]12 [compound 10, 12-hydroxymethyl-premarineosin A]	18.4 ± 6.7	19.7 ± 1.22	0.704 ± 0.304	1.23 ± 0.53	–	–	–
COC1=CC(c2ccc[nH]2)=N[C@@]12O[C@H](C)C[C@H]1CCCCCCCc3ccc([nH]3)[C@@H]12 [compound 3, (−)-premarineosin A]	1.47 ± 0.427	1.06 ± 0.336	0.001 ± 0.0007	0.004 ± 0.0001	–	–	Fold more potent than artesunate, Dd2 ([3]; Dd2, versus artesunate): 8 fold; Fold more potent than chloroquine, Dd2 [3]: > 350 fold; Antimalarial activity in vitro (Plasmodium): single-digit nanomolar; Fold more potent than artesunate, 3D7 ([4]; 3D7, versus artesunate): 6 fold; Fold more potent than chloroquine, 3D7 ([4]; 3D7, versus chloroquine): over 10 fold
COC1=CC(c2ccc[nH]2)=N[C@@]12O[C@H](C)C[C@H]1CCCCCCCc3[nH]c(cc3Br)[C@@H]12 [compound 12, 12-bromo premarineosin A]	1.63 ± 0.184	0.48 ± 0.084	–	–	0.022 ± 0.011	0.002	Fold more potent than chloroquine, Dd2 [3]: 17 fold; EC50 ([4]; 3D7, read-out: EC50 against P. falciparum): < 0.005 µM
CCN(CC)CCCC(C)Nc1ccnc2cc(Cl)ccc12 (stereo not drawn) [Chloroquine, reference compound]	–	–	–	–	0.382 ± 0.022	0.041 ± 0.003	–
C[C@H]1[C@H](OC(=O)CCC(=O)O)O[C@@H]2O[C@@]3(C)CC[C@H]4[C@H](C)CC[C@@H]1[C@@]24OO3 [Artesunate, reference compound]	–	–	0.008 ± 0.002	0.024 ± 0.006	–	–	–
COC1=CC(c2ccc[nH]2)=N[C@@]12O[C@H](C)C[C@H]1CCCCCCCc3[nH]c(cc3C(C)(O)C(F)(F)F)[C@@H]12 (stereo partly drawn) [compound 7, 12-trifluoropropanol premarineosin A]	–	–	0.087 ± 0.015	0.203 ± 0.01	–	–	EC50 at 72 h ([1]; HEK293 embryonic kidney cells): 4.21 ± 0.481 µM; EC50 at 72 h [2, 8]: 1.49 ± 0.388 µM; In vitro activity EC50 ± SD P. falciparum Dd2 [3, 5]: sub-micromolar; In vitro activity EC50 ± SD P. falciparum 3D7 [4, 9]: sub-micromolar

Reference: paper PMC12680612, “Metabolic engineering and late-stage functionalization expand the chemical space of the antimalarial premarineosin A” (Communications Chemistry, 2025)
